From patent publication US20090023186A1, “USE OF VALPROIC ACID FOR ENHANCING PRODUCTION OF RECOMBINANT PROTEINS IN MAMMALIAN CELLS” (EXCELLGENE SA, priority 2007, published 2009)

System: CHO DG44 cells
Experiment: Transient IgG expression, batch titer by ELISA, VPA concentration series (Example 1)
Type: cell-based, Chinese Hamster
Settings: for Fold increase over control / Batch titer: IgG, day 5 after transfection; for Batch titer: 37° C.
Method: 10 million suspension-adapted HEK293E cells were resuspended in 0.5 ml of Ex-Cell 293 HEK 293 serum-free medium with 4 mmol/l L-glutamine (Cat. No. 14571C-1000 M; Lot No. 6A0093; SAFC Biosciences, Lenexa, Kans., USA, “Ex-Cell” medium; note: “Ex-Cell” medium-as used herein-refers to a medium comprising 4 mmol/l L-glutamine) in a 50-ml filter tube each (TPP AG, Trasadingen, Switzerland; Cat. No. 87050, Lot 20050174). In a separate set, 10 million suspension-adapted CHO DG44 cells were resuspended in 0.5 ml of ProCHO5 serum-free medium with 4 mmol/[…] hypoxanthine and 0.194 g/l thymidine (BioWhittaker (Lonza), Belgium; Cat. No. BE12-[…]; Lot No. 7 MB0040; “ProCHO5” medium; note: “ProCHO5” medium-as used herein-refers to a medium comprising 4 mmol/[…] hypoxanthine and 0.194 g/l thymidine) in a 50-ml filter tube each (TPP AG, Trasadingen, Switzerland; Cat. No. 87050, Lot 20050174). Then 12.5 μg plasmid DNA at a concentration of 1 μg/μl was added in each tube with the following composition 50% (6.25 μg) p-LC (SEQ ID NO: 1) 50% (6.25 μg) p-HC (SEQ ID NO: 3). Plasmid p-LC comprises the genetic information for the production of the light chain of an IgG antibody, plasmid p-HC comprises the genetic information for the production of the heavy chain of an IgG antibody. The particular vector constructs used in the present invention can also be obtained from the inventors. The inventors can be contacted via e-mail at […]. Moreover, commercial services do exist that produce any desired nucleotide sequence even comprising several kilobase pairs including complete expression cassettes in plasmid backgrounds (e.g., Invitrogen, Carlsbad, USA; Geneart, Germany.) Thus, providing the genetic sequence information of the plasmids should enable one of ordinary skill in the art to order the plasmids of the present invention at one of the commercial services listed. After shortly mixing the DNA with the cells by gentle shaking, 25 μg of 25-kd linear polyethyleneimine (“PEI”; Polysciences, Eppelheim, Germany; [2]) were added at a concentration of 1 μg/μl to each of the tubes. After shortly mixing by gentle shaking, the filter tubes containing the cells together with the DNA and PEI were transferred into an orbital shaker (Kühner Shaker Cabinet ISF-4-W, “Kühner shaker”, Kühner AG, Birsfelden, Switzerland), and the cells were incubated for 4 hours at 37° C. in a 5% CO2 atmosphere under shaking at 180 rpm. After that time, 4.5 ml of Ex-Cell medium were added to each of the filter tubes containing HEK 293 cells and 4.5 ml of Pro-CHO5 were added to each of the filter tubes containing CHO DG44 cells. Then, valproic acid was added to each of the tubes at the corresponding final concentration. The cells then were returned into the Kühner shaker and incubated at 37° C. in a 5% CO2 atmosphere under shaking at 180 rpm. […] The ELISA was performed as published in prior art. In short, Goat anti-human kappa light chain IgG (Biosource) was used for coating the ELISA-plates, and with AP-conjugated goat anti-human gamma chain IgG (Biosource) the synthesized IgG1 was detected. NPP was used as a substrate for the alkaline phosphatase. Absorption was measured at 405 nm against 490 nm using a microplate reader (SPECTRAmaxTM340; Molecular Devices, Palo Alto, Calif., USA).

## CCCC(CCC)C(=O)O [VPA, valproic acid]
0.05 mmol/l final VPA
  Fold increase over control: 1 fold
  Batch titer: 7.4 ± 1.1 mg/L
0.1 mmol/l final VPA
  Fold increase over control: 1.3 fold
  Batch titer: 10.0 ± 1.5 mg/L
0.2 mmol/l final VPA
  Fold increase over control: 1.8 fold
  Batch titer: 13.7 ± 1.2 mg/L
0.5 mmol/l final VPA
  Fold increase over control: 2.1 fold
  Batch titer: 16.3 ± 1.3 mg/L
1 mmol/l final VPA
  Fold increase over control: 1.9 fold
  Batch titer: 14.4 ± 1.2 mg/L
2 mmol/l final VPA
  Fold increase over control: 1.3 fold
  Batch titer: 10.0 ± 0.9 mg/L
3 mmol/l final VPA
  Fold increase over control: 1.0 fold
  Batch titer: 7.4 ± 1.2 mg/L
For batch titer, CHO DG44 cells, day 5
  optimal final concentration: around 0.5 mmol/l
